Results taken from patent US20120071475A1, “UREA DERIVATIVES HAVING PI3K-INHIBITING ACTIVITY” (SHIONOGI & CO., LTD., priority 2009, published 2012).
In brackets after ≈: the same amount, converted by molar mass.

Legend:
[1] = Solubility test (artificial intestinal juice pH 6.8, 1% DMSO); assay type: physicochemical; settings: artificial intestinal juice pH 6.8 with 1% DMSO, fassgf or other biorelevant, kinetic from dmso stock, 25° C.
Description: The solubility of a compound was determined under a condition in which 1% DMSO was added. 10 mmol/L compound solution was prepared using DMSO, and then 6 μL of the compound solution was added to 594 μL of artificial intestinal juice in pH 6.8 (to 250 mL of 0.2 mol/L potassium dihydrogen phosphate reagent solution was added 118 mL of 0.2 mol/L NaOH reagent solution and water to provide a final volume of 1000 mL). After standing at 25° C. for 16 hours, the mixed solution was filtered with suction. The filtrate was diluted twice with methanol/water (1/1), and then a concentration in the filtration was measured with HPLC or LC/MS/MS by the absolute calibration method.

[2] = Metabolic stability test (pooled human liver microsome); assay type: in vitro ADME; settings: percentage of test compound remained after 30 minutes, pooled human liver microsome 0.5 mg protein/mL, 1 mmol/L NADPH, 37° C.; for hLMS_ox(at 0.5 μM) %: compound 0.5 μM
How it was run: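 Pooled human liver microsomes (0.5 mg protein/mL) incubated with compound and 1 mmol/L NADPH at 37° C. in pH 7.4 Tris buffer for 0 or 30 min. Parent quantified by LC/MS/MS after methanol/acetonitrile quench; value is % remaining at 30 min versus 0 min.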

[3] = system: CYP1A2, CYP2C9, CYP2C19, CYP2D6 and CYP3A4 (one value for the five species); assay: CYP inhibition test, five CYP species together (5CYPs_IC50; pooled human liver microsome); assay type: in vitro ADME; settings: human, microsomes
Excerpt: O-de-ethylation of 7-ethoxyresorufin (CYP1A2), methyl-hydroxylation of tolbutamide (CYP2C9), 4′-hydroxylation of mephenyloin (CYP2C19), O-demethylation of dextromethorphan (CYP2D6), and hydroxylation of terfenadine (CYP3A4), which are typical substrate for metabolic reactions of human main CYP5 molecular species (CYP1A2, 2C9, 2C19, 2D6, and 3A4), were adopted as indexes.
The reaction conditions are as follows: substrate: 0.5 μmol/L of ethoxyresorufin (CYP1A2), 100 μmol/L of tolbutamide (CYP2C9), 50 μmol/L of S-mephenyloin (CYP2C19), 5 μmol/L of dextromethorphan (CYP2D6), and 1 μmol/L of terfenadine (CYP3A4); reaction time; 15 minutes; reaction temperature: 37° C.; enzyme: pooled human liver microsome 0.2 mg protein/mL; test drug concentration: 1, 5, 10, and 20 μmol/L (4 points).
In a 96-well plate, as a reaction solution, five kinds of substrates, a human liver microsome, and a test drug were added to 50 mmol/L Hepes buffer solution in the aforementioned ratio. A coenzyme NADPH was added to start a metabolic reaction, which is an index. After reacting at 37° C. for 15 minutes, a solution of methanol/acetonitrile (1/1 (v/v)) was added to quench the reaction. After centrifugation at 3000 rpm for 15 minutes, resorufin (CYP1A2 metabolite) in the supernatant was quantitated with a fluorescence multilabel counter, and hydroxylated tolbutamide (CYP2C9 metabolite), 4′-hydroxylated mephenyloin (CYP2C19 metabolite), […], terfenadine in alcohol form (CYP3A4 metabolite) were quantitated with LC/MS/MS.
The case wherein only DMSO (a solvent which dissolved a drug) was added to a reaction system was defined as a control (100%). When a test drug solution was added, the remaining activity (%) at each concentration was calculated, and then IC50 was calculated with a concentration and an inhibition ratio by an inverse estimation using a logistic model.

PI3Kγ = PI3Kγ (Homo sapiens, UniProt P48736); assay: PI3Kγ inhibitory activity (PI3-kinase HTRF assay, inhibition ratio); assay type: biochemical; settings: 0.5 h, compound at 10 μmol/L; read-out: PI3Kg Inhibition Ratio % (10 μM)
Sequence of PI3Kγ (P48736 whole entry, species assumed): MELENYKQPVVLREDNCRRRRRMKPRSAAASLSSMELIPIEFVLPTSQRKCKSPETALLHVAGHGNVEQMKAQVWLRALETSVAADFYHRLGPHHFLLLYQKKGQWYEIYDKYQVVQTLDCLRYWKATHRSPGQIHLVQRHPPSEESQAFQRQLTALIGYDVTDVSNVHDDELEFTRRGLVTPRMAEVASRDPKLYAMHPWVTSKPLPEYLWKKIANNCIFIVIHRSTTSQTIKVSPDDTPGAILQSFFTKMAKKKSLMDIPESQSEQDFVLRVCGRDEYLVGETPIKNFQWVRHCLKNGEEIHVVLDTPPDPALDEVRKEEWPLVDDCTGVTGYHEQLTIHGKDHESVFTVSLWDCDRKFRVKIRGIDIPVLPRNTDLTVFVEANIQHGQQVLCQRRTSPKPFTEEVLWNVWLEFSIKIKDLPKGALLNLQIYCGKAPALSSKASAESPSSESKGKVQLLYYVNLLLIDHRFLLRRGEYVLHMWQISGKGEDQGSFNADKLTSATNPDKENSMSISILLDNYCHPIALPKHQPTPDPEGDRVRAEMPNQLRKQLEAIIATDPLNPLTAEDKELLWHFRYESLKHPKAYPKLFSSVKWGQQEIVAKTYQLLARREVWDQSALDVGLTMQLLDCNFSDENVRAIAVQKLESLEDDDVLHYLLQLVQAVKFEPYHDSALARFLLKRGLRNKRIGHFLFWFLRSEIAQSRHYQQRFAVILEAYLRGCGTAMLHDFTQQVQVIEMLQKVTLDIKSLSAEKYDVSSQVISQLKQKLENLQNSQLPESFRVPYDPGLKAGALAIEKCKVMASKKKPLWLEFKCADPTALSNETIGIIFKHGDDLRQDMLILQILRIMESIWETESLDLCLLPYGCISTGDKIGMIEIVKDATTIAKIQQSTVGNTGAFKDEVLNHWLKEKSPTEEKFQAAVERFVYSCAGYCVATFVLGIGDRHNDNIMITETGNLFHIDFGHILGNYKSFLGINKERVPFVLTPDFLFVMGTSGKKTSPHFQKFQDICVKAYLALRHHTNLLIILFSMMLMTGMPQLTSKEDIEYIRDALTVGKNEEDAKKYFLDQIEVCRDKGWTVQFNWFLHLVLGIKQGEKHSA
How it was run: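 Compound at 10 μmol/L preincubated 10 min with PI3Kγ and PIP2 substrate, then reacted with ATP for 30 minutes at room temperature; the compound, substrate and ATP figures as printed (40 μmol/L each) are solution concentrations. HTRF 665/620 nm ratio read after 18 hours. Inhibition ratio calculated against no-compound (100%) and no-enzyme (0%) controls.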

AKT phosphorylation = AKT phosphorylation inhibitory activity in MCP-1 stimulated THP-1 cells (sandwich ELISA); assay type: cell-based, Human; settings: Homo sapiens, compound at 1 μmol/L, MCP-1 stimulation, read-out: AKT phosphorylation inhibition ratio
How it was run: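 THP-1 cells (6.7×10^6/mL in HBSS) were preincubated with compound at 1 μmol/L for 5 min at 37 °C, then stimulated for 60 s with HBSS containing 1.2 μg/mL MCP-1 and lysed. Phospho-Akt Ser473/AKT1 sandwich ELISA was read at A450. % inhibition: no compound = 100% activity, no MCP-1 = 0%.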

CYP3A4 = biological target: T1, CYP3A4 (Homo sapiens, UniProt P08684); assay: CYP3A4 fluorescence MBI test; assay type: in vitro ADME; settings: difference in IC50 with 0 or 30 minutes pre-reaction; CYP3A4 expressed in E. coli, substrate 7-BFC
T1 construct: host or cells: E. coli
T1 sequence (P08684 whole entry): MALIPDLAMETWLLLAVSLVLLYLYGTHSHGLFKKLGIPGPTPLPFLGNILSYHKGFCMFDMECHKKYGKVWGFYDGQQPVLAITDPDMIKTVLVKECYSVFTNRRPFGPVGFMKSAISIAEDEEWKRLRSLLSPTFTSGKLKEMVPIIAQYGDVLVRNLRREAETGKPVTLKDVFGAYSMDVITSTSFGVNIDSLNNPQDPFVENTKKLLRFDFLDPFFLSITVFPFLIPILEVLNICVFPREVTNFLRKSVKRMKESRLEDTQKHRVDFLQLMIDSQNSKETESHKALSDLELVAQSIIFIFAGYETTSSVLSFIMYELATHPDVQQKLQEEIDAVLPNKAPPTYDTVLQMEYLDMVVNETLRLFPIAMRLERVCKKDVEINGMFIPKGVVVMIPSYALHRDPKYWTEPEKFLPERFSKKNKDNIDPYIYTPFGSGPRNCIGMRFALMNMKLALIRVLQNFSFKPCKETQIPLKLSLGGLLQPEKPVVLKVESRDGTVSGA
How it was run: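 E. coli-expressed CYP3A4 debenzylating 5.6 μmol/L 7-BFC to fluorescent 7-HFC (Ex 420/Em 535 nm) in K-Pi pH 7.4 at 25° C, 15 min reaction. NADPH pre-incubation of 0 or 30 min, with 10-fold dilution before reaction. IC50 from 0.625–20 μmol/L (6 points); (+) for an IC50 shift ≥5 μmol/L, (−) for ≤3 μmol/L.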

hERG channel (IKr) = biological target: T2, hERG channel (IKr) (Homo sapiens, UniProt Q12809); assay: hERG test (whole-cell patch-clamp, IKr in HEK293 cells); assay type: cell-based; settings: human, HEK293 cells expressing hERG channel, pH 7.4, inhibition of maximum tail current (IKr); for inhibition at 10 min, 1 µM: compound 1 μM
T2 construct: expressed in transfected cells; host or cells: HEK293
T2 sequence (Q12809 whole entry): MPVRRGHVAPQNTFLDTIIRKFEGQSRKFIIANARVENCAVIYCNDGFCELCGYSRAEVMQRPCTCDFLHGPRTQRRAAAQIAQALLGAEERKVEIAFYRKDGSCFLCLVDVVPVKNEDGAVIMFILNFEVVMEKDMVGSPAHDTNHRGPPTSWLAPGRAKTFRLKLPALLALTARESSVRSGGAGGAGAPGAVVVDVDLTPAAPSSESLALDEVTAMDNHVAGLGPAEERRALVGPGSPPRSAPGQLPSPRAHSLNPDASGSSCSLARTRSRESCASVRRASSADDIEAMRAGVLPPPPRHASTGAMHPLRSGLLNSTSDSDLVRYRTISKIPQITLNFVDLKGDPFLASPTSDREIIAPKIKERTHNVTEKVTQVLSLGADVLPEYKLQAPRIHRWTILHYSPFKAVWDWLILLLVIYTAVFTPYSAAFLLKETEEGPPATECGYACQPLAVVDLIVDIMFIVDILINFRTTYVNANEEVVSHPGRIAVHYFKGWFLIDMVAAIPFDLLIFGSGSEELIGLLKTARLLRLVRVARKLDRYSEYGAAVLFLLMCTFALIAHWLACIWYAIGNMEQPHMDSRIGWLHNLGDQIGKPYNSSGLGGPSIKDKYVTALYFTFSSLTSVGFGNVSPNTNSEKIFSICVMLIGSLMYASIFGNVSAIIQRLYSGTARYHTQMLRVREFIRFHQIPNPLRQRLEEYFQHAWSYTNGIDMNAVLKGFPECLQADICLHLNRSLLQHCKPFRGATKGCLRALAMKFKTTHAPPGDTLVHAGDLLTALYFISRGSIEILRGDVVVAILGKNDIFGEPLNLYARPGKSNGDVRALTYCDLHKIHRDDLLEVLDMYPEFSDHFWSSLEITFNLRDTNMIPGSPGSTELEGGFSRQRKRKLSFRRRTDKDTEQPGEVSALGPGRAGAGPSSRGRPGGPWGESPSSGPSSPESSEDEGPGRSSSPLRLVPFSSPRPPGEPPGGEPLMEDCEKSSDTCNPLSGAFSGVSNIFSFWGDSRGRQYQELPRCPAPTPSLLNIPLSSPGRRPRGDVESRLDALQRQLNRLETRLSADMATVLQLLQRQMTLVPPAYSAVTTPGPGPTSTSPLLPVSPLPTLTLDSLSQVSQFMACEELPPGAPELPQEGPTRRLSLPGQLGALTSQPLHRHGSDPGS
How it was run: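 hERG-expressing HEK293 cells, automated whole-cell patch clamp: hold −80 mV, +50 mV for 2 s, then −50 mV for 2 s to record IKr tail current. Compound in extracellular solution (pH 7.4) for 10 min at room temperature; inhibition of maximum tail current calculated versus pre-application and compared with 0.1% DMSO vehicle.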

SMILES | solubility at 16 h [1] [µM] | hLMS_ox(at 0.5 μM) % [2] [%] | IC50 at 15 min [3] [µM] | inhibition at 10 µM (PI3Kγ) [%] | inhibition at 1 µM (AKT phosphorylation) [%] | MBI (CYP3A4) | inhibition at 10 min, 1 µM (hERG channel (IKr)) [%] | hLMS_ox(at 2 μM) % ([2]; compound 2 μM) [%] | inhibition at 10 min, 10 µM (hERG channel (IKr); compound 10 μM) [%]
COc1cc(N2CCc3nc(NC(=O)Nc4ccccc4C(=O)NC(C)CO)sc3C2)cnc1OC (centres unmarked) [Compound I-104] | 39.6 (≈ 20.3 µg/mL) | 103 |  |  |  |  |  |  | 
CCOC(=O)[C@H]1CCC[C@H]1NC(=O)Nc1nc2c(s1)CN(c1cc(OC)nc(OC)n1)CC2 [Compound I-149] | 36.1 (≈ 17.2 µg/mL) |  | > 20 |  |  |  |  |  | 
COc1cc(N2CCc3nc(NC(=O)Nc4ccccc4C(=O)NC(C)CN(C)C)sc3C2)nc(OC)n1 (centres unmarked) [Compound I-137] | > 50 | 94.5 |  | ≥ 95 | 85 |  |  |  | 
COc1cc(N2CCc3nc(NC(=O)Nc4ccccc4C(=O)N4CCOCC4)sc3C2)nc(OC)n1 [Compound I-10] | > 50 |  | > 20 | 68 |  | (−) (When 3 μmol/L or less, the compound is shown as (−)) |  |  | 
COc1ccc(N2CCc3nc(NC(=O)Nc4ccccc4C(=O)NC(C)CO)sc3C2)cc1OC (centres unmarked) [Compound I-107] | 42.6 (≈ 21.8 µg/mL) | 98 | ≥ 10 |  |  |  | 5.4 |  | 
COc1cc(N2CCc3nc(NC(=O)Nc4ccccc4OCCC(C)(C)C(=O)O)sc3C2)nc(OC)n1 [Compound I-100] | 34.4 (≈ 18.7 µg/mL) | 89.3 |  | ≥ 95 |  |  |  |  | 
CC(=O)c1cccc(-c2cc(NC(=O)Nc3ccccc3C(=O)NC(C)C)nn2C)c1 [Compound I-227] | 36.8 (≈ 15.4 µg/mL) |  |  | 87 |  |  |  |  | 
COc1cc(N2CCc3nc(NC(=O)Nc4ccccc4C(=O)NN(C)C)sc3C2)nc(OC)n1 [Compound I-182] | 19.6 (≈ 9.77 µg/mL) | 88.1 |  | ≥ 95 | ≥ 95 |  | 4.9 |  | 
COc1cc(N2CCc3nc(NC(=O)Nc4ccccc4C(=O)N(C)C(C)C)sc3C2)nc(OC)n1 [Compound I-13] | 15.4 (≈ 7.88 µg/mL) |  |  | ≥ 95 |  |  |  |  | 
COc1cc(N2CCc3nc(NC(=O)Nc4ccccc4C(=O)NCC(C)(C)O)sc3C2)nc(OC)n1 [Compound I-158] | 24.9 (≈ 13.1 µg/mL) | 99 |  | 86 | ≥ 95 |  | 9.2 |  | 
C[C@@H](CO)NC(=O)c1ccccc1NC(=O)Nc1nc2c(s1)CN(c1cncc(C#N)c1)CC2 [Compound I-189] | 10.3 (≈ 4.92 µg/mL) |  |  | 92 |  | (−) (When 3 μmol/L or less, the compound is shown as (−)) |  |  | 
COc1cc(N2CCc3nc(NC(=O)Nc4ccsc4C(=O)O)sc3C2)nc(OC)n1 [Compound I-4] | 12.3 (≈ 5.69 µg/mL) |  |  | 72 |  |  |  | 103 | 
CC(CO)NC(=O)c1ccccc1NC(=O)Nc1nc2c(s1)CN(c1ccc(F)cn1)CC2 (centres unmarked) [Compound I-120] | 17.5 (≈ 8.23 µg/mL) | 92.3 |  | ≥ 95 |  |  |  |  | 
CC(C)NC(=O)c1ccccc1NC(=O)Nc1nc2c(s1)CN(c1cnc(N)c(C(F)(F)F)c1)CC2 [Compound I-212] | 14 (≈ 7.27 µg/mL) |  | ≥ 10 | ≥ 95 | ≥ 95 |  |  |  | 
CC(C)NC(=O)c1ccccc1NC(=O)Nc1nc2c(s1)CN(c1cc[nH]c(=O)c1)CC2 [Compound I-178] | 10 (≈ 4.53 µg/mL) | 97.9 |  | ≥ 95 |  |  |  |  | 
COc1cc(N2CCc3nc(NC(=O)Nc4ccccc4C(=O)NC(C)(C)C(=O)O)sc3C2)nc(OC)n1 [Compound I-19] | > 50 | 87.2 | > 20 | ≥ 95 |  |  |  |  | 9.5
CCNC(=O)c1ccncc1NC(=O)Nc1nc2c(s1)CN(c1cnc(OC)c(OC)c1)CC2 [Compound I-103] | 30.1 (≈ 14.6 µg/mL) | 85.8 |  | ≥ 95 |  |  | 3.6 |  | 
COc1cc(N2CCc3nc(NC(=O)NN4CCC[C@H]4C(=O)NC(C)C)sc3C2)nc(OC)n1 [Compound I-179] | > 50 |  |  |  |  |  |  |  | 
COc1cc(N2CCc3nc(NC(=O)Nc4ccccc4CNC(C)C)sc3C2)nc(OC)n1 [Compound I-84] | > 50 |  | > 20 |  |  |  |  |  | 
COc1cc(N2CCc3nc(NC(=O)Nc4ccccc4C(=O)NC4CCNCC4)sc3C2)nc(OC)n1 [Compound I-202] | > 50 | 104 | ≥ 10 | ≥ 95 |  |  |  |  | 
COc1cc(N2CCc3nc(NC(=O)NC4CCCCC4C(=O)NC(C)C)sc3C2)nc(OC)n1 (centres unmarked) [Compound I-31] | 32.3 (≈ 16.3 µg/mL) |  | ≥ 10 | 90 |  |  |  |  | 
